According to US8022051B2, “Composition for protection and improvement of skin, or reinforcing skin barrier function comprising phosphatidylserine” (Doosan Corporation, priority 2004, dated 2011):

How the values were obtained:
Format in all cases: cell-based
[1] = test system: normal human keratinocytes; assay: Differentiation promoting effect in skin keratinocytes (western blot of involucrin and transglutaminase); settings: phosphatidylserine 20 and 40 μM, calcium 1.2 mM, clofibrate 200 and 400 μM; 24 hours; FIG. 5
Experimental: In order to examine a differentiation promoting effect in the skin keratinocytes by the phosphatidylserine of the invention, a following experiment was performed. First, the normal human keratinocytes (a gift from Dong-guk University) cultured in the KSFM (Keratinocyte-SFM; Gibco BRL/Life Technologies, USA) were seeded to the 35 mm^2 cell culture dish in an amount of 1.5×10^5 cells/dish and then cultured for a day. Next day, the culture medium was removed and a new culture medium containing 20 and 40 μM of phosphatidylserine aqueous solution, 1.2 mM calcium aqueous solution and 200 and 400 μM of clofibrate (Sigma, USA) added thereto was added and cultured for 24 hours. Next day, in order to make sure of a differentiation of the keratinocyte, a morphology change of the cell was checked with a phase contrast microscope (Nikon, Japan) and a photograph was taken with a digital camera attached to the microscope. In addition, a western blot was performed to check the protein expression amount of involucrin and transglutaminase, which have been known as a differentiation-marker proteins of the keratinocyte peculiar to the keratin. 500 μl of a lysis buffer having 2% sodium dodecyl sulfate (SDS) added thereto wad added and the cells were collected with a cell scrapper, so that cell lysate only was obtained. […]

PPAR-γ = molecular target: T1, PPAR-γ (Homo sapiens, UniProt P37231); assay: PPAR-γ activation in HeLa cell line (luciferase reporter); settings: 10 and 50 μM; FIG. 7
T1 construct: expressed in transfected cells; host or cells: HeLa (KCLB No. 10002)
T1 sequence (P37231 1-505): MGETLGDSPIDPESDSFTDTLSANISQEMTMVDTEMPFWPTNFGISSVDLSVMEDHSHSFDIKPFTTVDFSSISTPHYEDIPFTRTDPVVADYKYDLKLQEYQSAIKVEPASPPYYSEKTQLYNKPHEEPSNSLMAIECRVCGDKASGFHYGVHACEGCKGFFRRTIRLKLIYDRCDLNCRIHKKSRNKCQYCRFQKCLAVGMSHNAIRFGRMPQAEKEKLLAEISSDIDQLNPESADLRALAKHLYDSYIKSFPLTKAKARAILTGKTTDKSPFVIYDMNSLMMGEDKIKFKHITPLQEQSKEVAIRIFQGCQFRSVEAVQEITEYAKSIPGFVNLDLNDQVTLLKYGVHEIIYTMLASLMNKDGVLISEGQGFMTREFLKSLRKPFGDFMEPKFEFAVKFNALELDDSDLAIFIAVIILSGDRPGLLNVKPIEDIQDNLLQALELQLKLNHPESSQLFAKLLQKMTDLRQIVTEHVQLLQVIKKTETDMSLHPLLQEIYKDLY
Experimental: (§1) In order to examine a PPAR-a activating effect of the phosphatidylserine of the invention, a following experiment was performed. At this time, it was examined activities for the PPAR-a and PPAR-γ retained.
First, a HeLa (Human epithelial carcinoma) (KCLB [Korean Cell Line Bank] No. 10002, Korea) was seeded to a 24-well plate in an amount of 2×10^4 cells/well and then cultured for a day. Next day, in order to perform a cell transfection, 200 ng of PPAR-a over-expression vector, 200 ng of PPRE (peculiar to PPAR-a)-luciferase reporter vector (Promega, USA), and 40 ng of renilla luciferase vector used as the control group in the cell (internal control, i.e., used to examine an transfection efficiency) were mixed in the OMEM (Gibco, USA) culture medium and subject to the transfection to the cell using the lipofectamin (Invitrogen, USA). After four hours, the culture medium was added to be 10% FBS and then cultured for one night. […] An activity of the luciferase was measured with a luminometer using a dual luciferase assay system (Promega, USA). Also in case of PPAR-γ, the same process was performed to measure the activity. At this time, in case of measuring the activity of PPAR-γ, 10 and 50 μM of phosphatidylserine and 50 μM of cyglitazone (Sigma, USA) as the positive control group were treated. […]

PPAR-a = molecular target: T2, PPAR-a (Homo sapiens, UniProt Q07869); assay: PPAR-a activation in HeLa cell line (PPRE-luciferase reporter); settings: 20 and 40 μM, eight hours; FIG. 7
T2 construct: expressed in transfected cells; host or cells: HeLa (KCLB No. 10002)
T2 sequence (Q07869 1-468): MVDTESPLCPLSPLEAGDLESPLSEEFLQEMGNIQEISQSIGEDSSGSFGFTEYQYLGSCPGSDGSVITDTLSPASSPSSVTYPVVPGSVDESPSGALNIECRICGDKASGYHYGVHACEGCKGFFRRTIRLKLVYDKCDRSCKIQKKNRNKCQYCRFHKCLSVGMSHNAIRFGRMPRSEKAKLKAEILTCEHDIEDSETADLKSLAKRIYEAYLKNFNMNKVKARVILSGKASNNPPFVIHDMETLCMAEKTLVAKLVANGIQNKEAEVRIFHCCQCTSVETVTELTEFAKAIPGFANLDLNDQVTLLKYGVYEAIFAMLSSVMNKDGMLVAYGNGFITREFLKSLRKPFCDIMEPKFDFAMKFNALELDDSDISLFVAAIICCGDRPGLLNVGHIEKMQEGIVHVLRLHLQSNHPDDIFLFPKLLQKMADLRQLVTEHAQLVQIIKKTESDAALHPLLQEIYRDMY
Experimental: as §1
First, a HeLa (Human epithelial carcinoma) (KCLB [Korean Cell Line Bank] No. 10002, Korea) was seeded to a 24-well plate in an amount of 2×10^4 cells/well and then cultured for a day. Next day, in order to perform a cell transfection, 200 ng of PPAR-a over-expression vector, 200 ng of PPRE (peculiar to PPAR-a)-luciferase reporter vector (Promega, USA), and 40 ng of renilla luciferase vector used as the control group in the cell (internal control, i.e., used to examine an transfection efficiency) were mixed in the OMEM (Gibco, USA) culture medium and subject to the transfection to the cell using the lipofectamin (Invitrogen, USA). After four hours, the culture medium was added to be 10% FBS and then cultured for one night. Next day, in order to measure an activity of PPAR-a, it was treated with 20 and 40 μM of phosphatidylserine and 400 μM of the clofibrate as the positive control group and then cultured for eight hours. An activity of the luciferase was measured with a luminometer using a dual luciferase assay system (Promega, USA). Also in case of PPAR-γ, the same process was performed to measure the activity. […]

With phosphatidylserine the “protein expression of involucrin and transglutaminase” value [1] was “rapidly increased the expressions of the proteins”, the “activity of PPAR-γ (luciferase)” value (PPAR-γ) was “had no influence” and the “activity of PPAR-a (luciferase)” value (PPAR-a) was “activated”.
